How the values were obtained:
Format in all cases: physicochemical
[1] = Release of pharmaceutical from microsealed silicone delivery device (release rate and kinetics); details: device: 2 parts drug in 2 parts 40% PEG (MW 380-420) in water, Silastic 382 matrix, Silastic tubing
From the text: amount of pharmaceutical released decreases with time and Q - t
Those skilled in the pharmaceutical arts will know how to determine toxic levels of a given pharmaceutical, and the minimum effective dose. With this information a proper dosage form can be prepared by measuring the in vivo rate of elution of a given pharmaceutical by standard analytic tecniques e.g. spectroscopic or radio immunoassay analysis. In vitro diffusion of the pharmaceutical from a delivery device may be determined by the methods of Chien and Lambert, J. Pharm. Sci., 63, 365 (1974) or by methods described in U.S. Pat. No. 3,710,795.
A biologically acceptable silicone polymer matrix containing a pharmaceutical in a hydrophilic solvent system is prepared as follows: […] of ethynodiol diacetate at 37° C. by vigorous agitation for 10 minutes. To this mixture is added 6 parts of liquid silicone polymer of the formula [drawing 5] sold as Silastic® Medical Grade 382 Elastomer by Dow-Corning and this combination is stirred with a mechanical mixer at 1000 rpm for 28 minutes. 0.015 Parts of a cross-linking agent (stannous octanoate is added to the combination and stirring is continued for 2 minutes. The combination is placed in a silicone rubber tubing (I.D. 3.18mm, 0.D. 6.35mm sold by Dow-Corning as Medical Grade Silastic Tubing No. 601-365). This tubing is a silicone polymer of the formula The system is allowed to cross-link for 1 hour and then the tubing is sectioned to provide pharmaceutical delivery devices with the desired amount of pharmaceutical. The ends of the sections may be sealed or left open and additional openings may be made in the walls of the tubing to facilitate higher but still constant rates of release. This device releases 315.6 mcg/cm^2 /day of ethynodiol diacetate. Replacement of the ethynodiol diacetate with 2 parts of one of the following pharmaceuticals provides the indicated release rate: […]

[2] = as above; details: for Kinetics of release: Q - t = partition controlled, constant release independent of time
[3] = Partition coefficient (Kb) between hydrophilic solvent system and silicone polymer matrix
Procedure: Partition coefficient K(b) is measured by immersing a known surface area of biologically acceptable silicone polymer matrix material in a solution of the pharmaceutical in the hydrophilic solvent system with constant shaking for 24 hours and then measuring the amount of pharmaceutical remaining in the solvent system.
Ci = initial concentration of pharmaceutical
Cl = Equilibrium concentration of pharmaceutical
(§1) Table I is illustrative of the relation between Cl, Kb, release rate, and kinetics of release of 17α-ethynyl-4-estrene-3β,17β-diol 3,17-diacetate (ethynodiol diacetate) in a hydrophilic solvent system of polyethylene glycol having a molecular weight of about 400.

[4] = Solubility of pharmaceutical (Cl) in hydrophilic solvent system at 37° C, 24 h shaking; details: organic solvent or mixture
Procedure: Solubility of a pharmaceutical (Cl) is measured by constant shaking for 24 hours an excess amount of powdered pharmaceutical in 10 ml. of a hydrophilic solvent system at 37° C. The solution is filtered and the content of the pharmaceutical is measured.
as §1

CC(=O)S[C@@H]1CC2=CC(=O)CC[C@]2(C)[C@H]2CC[C@@]3(C)[C@@H](CC[C@@]34CCC(=O)O4)[C@H]12 [7α-acetylthio-17α-(2-carboxyethyl)-17β-hydroxyandrost-4-en-3-one lactone]
Release rate [1]: 18.25 mcg/cm^2 /day

COC(=O)C1CC2=CC(=O)CCC2(C)C2CCC3(C)C(CCC34CCC(=O)O4)C12 (stereo not drawn) [17-hydroxy-7β-methoxycarbonyl-3-oxo-17α-pregn-4-ene-21-carboxylic acid γ-lactone]
Release rate [1]: 63.08 mcg/cm^2 /day

CC(=O)O[C@]1(C(C)=O)CC[C@H]2[C@@H]3CCC4=CC(=O)CC[C@@H]4[C@H]3[C@@H](C)C[C@@]21C [17α-acetoxy-11β-methyl-19-norpregn-4-ene-3,20-dione]
Release rate [1]: 51.89 mcg/cm^2 /day

CC(=O)OCC(=O)[C@H]1CC[C@H]2[C@@H]3CCC4=CC(=O)CC[C@]4(C)[C@H]3CC[C@]12C [Desoxycorticosterone acetate]
Release rate [1]: 55.1 mcg/cm^2 /day

C#C[C@]1(OC(C)=O)CC[C@H]2[C@@H]3CCC4=C[C@@H](OC(C)=O)CC[C@@H]4[C@H]3CC[C@@]21C [ethynodiol diacetate, 17α-ethynyl-4-estrene-3β,17β-diol 3,17-diacetate]
Release rate time dependence with alternative solvent systems ([2]; 1,3-butanediol, propylene glycol, PEG 4000, PEG 6000, Solketal, Medical Fluid 360 solvent systems): independent of time
Release from devices with alternative solvent systems ([2]; 1,3-butanediol, propylene glycol, PEG 4000, PEG 6000, Solketal, Medical Fluid 360 solvent systems, prepared as for PEG 400): 150 - 275 mcg/cm^2
Rate of Pharmaceutical Release ([2]; 30% PEG 400): 297.8 gm/10^6 cm^2/day
Kinetics of release ([2]; 30% PEG 400): Q - t
Rate of Pharmaceutical Release ([2]; 50% PEG 400): 315.6 gm/10^6 cm^2/day
Kinetics of release ([2]; 50% PEG 400): Q - t
Rate of Pharmaceutical Release ([2]; 60% PEG 400): 319.4 gm/10^6 cm^2/day
Kinetics of release ([2]; 60% PEG 400): Q - t
Rate of Pharmaceutical Release ([2]; 80% PEG 400): 1203 gm/10^6 cm^2/day^1/2
Rate of Pharmaceutical Release ([2]; 100% PEG 400): 1095 gm/10^6 cm^2/day^1/2
Release rate from silicone rubber implantates, relation to time ([2]; in the absence of microsealed compartments containing a suitable hydrophilic solvent): porportional to the square root of time (T^1/2)
Kb/Cl ([3]; 30% PEG 400): 0.355 mL/µg
Kb/Cl ([3]; 50% PEG 400): 0.061 mL/µg
Kb/Cl ([3]; 60% PEG 400): 0.0078 mL/µg
Kb/Cl ([3]; 80% PEG 400): 7.4e-05 mL/µg
Kb/Cl ([3]; 100% PEG 400): 7e-07 mL/µg
solubility at 24 h ([4]; 30% PEG 400, 37° C): 64.6 µg/mL
solubility at 24 h ([4]; 50% PEG 400, 37° C): 156 µg/mL
solubility at 24 h ([4]; 60% PEG 400, 37° C): 437 µg/mL
solubility at 24 h ([4]; 80% PEG 400, 37° C): 4460 µg/mL
solubility at 24 h ([4]; 100% PEG 400, 37° C): 45600 µg/mL
Release rate [1]: 315.6 mcg/cm^2 /day

Cc1ncc([N+](=O)[O-])n1CCO [metronidazole]
Release rate [1]: 4.23 mcg/cm^2 /day
